Source: US10314880B2, “Composition comprising bortezomib” (FTF Pharma Private Limited, priority 2015, dated 2019)

Columns and labels:
[1] = stress testing and accelerated stability studies; cited from earlier work
[2] = Bortezomib as such; cited from earlier work
[3] = system: Female New-Zealand White Rabbits; conditions: rabbit, in vivo
Procedure: Also Local tolerability/tissue reaction of Bortezomib 3.5 mg/0.2 mL compared with Velcade (Reference product) in Female New-Zealand White Rabbits.
The study was conducted to assess the local tolerance of Bortezomib in comparison with Velcade (Reference product) in New Zealand White Rabbits by single subcutaneous or intravenous route.

Compound	stability in aqueous solution for injection [1]	water solubility [2]	External observation of the site of injection: signs of local intolerance [3]	Microscopic signs of local intolerance ([3]; iv)	animals with signs of local intolerance observed microscopically ([3]; sc)
CC(C)C[C@H](NC(=O)[C@H](Cc1ccccc1)NC(=O)c1cnccn1)B(O)O [Bortezomib, [(1R)-3-methyl-1-[[(2s)-3-phenyl-2-(pyrazine-2-carbonylamino)propanoyl]amino]butyl]boronic acid]	unstable	poor water solubility			
Velcade			did not reveal any signs of local intolerance	no signs of local intolerance	50 % of animals
